One data set relates to Diabrotica balteata. Nature of the data set: Activity against Diabrotica balteata (Example B2). In kind it is in vivo. The conditions noted are these: 144 h, maize seedlings sprayed, 400 ppm active ingredient, 2nd instar larvae, 6 days, read-out: percentage reduction in the population (% activity). Here is the method: Maize seedlings are sprayed with an aqueous emulsion spray mixture comprising 400 ppm of active ingredient and, after the spray coating has dried on, populated with 10 larvae (2nd instar) of Diabrotica balteata and introduced into a plastic container. 6 days later, the percentage reduction in the population (% activity) is determined by comparing the number of dead larvae between the treated and untreated plants.

Another data set concerns Heliothis virescens. Nature of the data set: Activity against Heliothis virescens, foliar application (Example B3). In kind it is in vivo. The conditions noted are these: 144 h, young soya plants sprayed, 400 ppm active ingredient, 1st instar caterpillars, 6 days, read-out: percentage reduction in the population and in the feeding damage (% activity). Here is the method:
Young soya plants are sprayed with an aqueous emulsion spray mixture comprising 400 ppm of active ingredient and, after the spray coating has dried on, populated with 10 caterpillars (1st instar) of Heliothis virescens and introduced into a plastic container. 6 days later, the percentage reduction in the population and in the feeding damage (% activity) are determined by comparing the number of dead caterpillars and the feeding damage between the treated and untreated plants.

The subject of the next data set is Myzus persicae. Nature of the data set: Activity against Myzus persicae, foliar application (Example B5). In kind it is in vivo. The conditions noted are these: pea seedlings sprayed, 400 ppm active ingredient, 20°, 3 and 6 days, read-out: percentage reduction in the population (% activity). The procedure:
Pea seedlings are infected with Myzus persicae, subsequently sprayed with a spray mixture comprising 400 ppm of active ingredient and then incubated at 20°. 3 and 6 days later, the percentage reduction in the population (% activity) is determined by comparing the number of dead aphids between the treated and untreated plants.

The subject of the next data set is Plutella xylostella. Nature of the data set: Activity against Plutella xylostella (Example B7). As to conditions: 72 h, young cabbage plants sprayed, 400 ppm active ingredient, 3rd instar caterpillars, 3 days, read-out: percentage reduction in the population and in the feeding damage (% activity). In kind it is in vivo. The procedure:
Young cabbage plants are sprayed with an aqueous emulsion spray mixture comprising 400 ppm of active ingredient and, after the spray coating has dried on, populated with 10 caterpillars (3rd instar) of Plutella xylostella and introduced into a plastic container. 3 days later, the percentage reduction in the population and in the feeding damage (% activity) are determined by comparing the number of dead caterpillars and the feeding damage between the treated and untreated plants.

Data set [1] concerns Spodoptera littoralis. Nature of the data set: Activity against Spodoptera littoralis (Example B8). In kind it is in vivo. As to conditions: 72 h, young soya plants sprayed, 400 ppm active ingredient, 1st instar caterpillars, 3 days, read-out: percentage reduction in the population and in the feeding damage (% activity). The procedure: Young soya plants are sprayed with an aqueous emulsion spray mixture comprising 400 ppm of active ingredient and, after the spray coating has dried on, populated with 10 caterpillars (1st instar) of Spodoptera littoralis and introduced into a plastic container. 3 days later, the percentage reduction in the population and in the feeding damage (% activity) are determined by comparing the number of dead caterpillars and the feeding damage between the treated and untreated plants.

Data set [2] has as its system Spodoptera littoralis. Nature of the data set: Systemic insecticide test for Spodoptera littoralis (cotton leafworm) (Example B9). The data set is classed as in vivo. The conditions noted are these: 96 h, read-out: percentage of dead (activity). The procedure:
Four day old maize seedlings (Zea mays, variety Stoneville) are placed individual in vials containing 24 ml water into which the chemical is diluted at 12.5 ppm. Seedlings are allowed to grow for six days. Subsequently leaves are cut and placed in a Petri dish (5 cm diameter), inoculated with twelve to fifteen 1st instar S. littoralis larvae and incubated for four days in a growth chamber (25° C., 50% r.h., 18:6 L:D photo period). Number of alive insects are counted and percentage of dead calculated. Tests were conducted with one replicate. In this test, compounds listed in the Tables above show good activity. In particular compounds T1.1.17, T1.1.89, T41.1.1, T35.1.1, T40.1.1, T30.1.1, T44.1.1, T31.1.1, T31.1.2, T30.1.2, T1.1.17, T1.1.89, T16.1.1, T36.1.1, T16.1.1, T3.7.1, T18.1.1, T43.1.1, T42.1.1, T30.1.2, T30.1.1, T40.1.1, T41.1.1, T45.1.1, T35.1.1, T1.1.73, T18.1.1, T36.1.1, T1.1.1 and T1.1.73 have an activity of over 80%.

Twelve compounds from US7893092B2, “Anthranilamide derivatives as insecticides” (Syngenta Crop Protection, Inc., priority 2004, dated 2011) can be followed below.

Read-outs that look alike come from different tables or passages of the source.

Turning to `Cc1cc(Cl)cc(C(=O)NC(C)(C)CS(C)(=N)=O)c1NC(=O)c1cc(C(F)(F)F)nn1-c1ncccc1Cl` (stereo not shown) [T1.1.1], the inhibition at 400 ppm in the data set on Diabrotica balteata, with Heliothis virescens, in the data set with Myzus persicae, with Plutella xylostella and with Spodoptera littoralis [1] was greater than 80% in each case. Further, the pest or weed control at 12.5 ppm with Spodoptera littoralis [2] (in Zea mays) was greater than 80%.
Take `Cc1cc(Cl)cc(C(=O)NC(C)(C)CS(C)(=N)=O)c1NC(=O)c1cc(OCC(F)(F)F)nn1-c1ncccc1Cl` (stereo not shown) [T1.1.17]: the inhibition at 400 ppm in the data set on Diabrotica balteata, with Plutella xylostella and in the data set with Spodoptera littoralis [1] was greater than 80% in each case. The pest or weed control at 12.5 ppm in the data set with Spodoptera littoralis [2] (in Zea mays) was greater than 80%.
Regarding `Cc1cc(C#N)cc(C(=O)NC(C)(C)CS(C)(=N)=O)c1NC(=O)c1cc(C(F)(F)F)nn1-c1ncccc1Cl` (stereo not shown) [T1.1.73], the inhibition at 400 ppm in the data set with Diabrotica balteata, in the data set on Plutella xylostella and in the data set on Spodoptera littoralis [1] was greater than 80% throughout. The pest or weed control at 12.5 ppm in the data set with Spodoptera littoralis [2] (in Zea mays) was greater than 80%.
For `Cc1cc(C#N)cc(C(=O)NC(C)(C)CS(C)(=N)=O)c1NC(=O)c1cc(OCC(F)(F)F)nn1-c1ncccc1Cl` (stereo not shown) [T1.1.89], the inhibition at 400 ppm with Diabrotica balteata, in the data set with Plutella xylostella and in the data set with Spodoptera littoralis [1] was greater than 80% in each case. The pest or weed control at 12.5 ppm in the data set on Spodoptera littoralis [2] (in Zea mays) is greater than 80%.
The melting point is the temperature, or range, at which the solid turns liquid. As for `Cc1cc(Cl)cc(C(=O)NC(C)(C)CS(C)(=O)=NC(=O)C(F)(F)F)c1NC(=O)c1cc(C(F)(F)F)nn1-c1ncccc1Cl` (stereo not shown) [T3.1.1], the melting point lay in the range of 112 to 115 °C. Besides, the inhibition at 400 ppm with Diabrotica balteata is greater than 80%. Moreover, the inhibition at 400 ppm in the data set with Heliothis virescens was greater than 80%. The inhibition at 400 ppm with Myzus persicae is greater than 80%. Moreover, in the data set with Plutella xylostella, the inhibition at 400 ppm was greater than 80%. The inhibition at 400 ppm in the data set with Spodoptera littoralis [1] is greater than 80%.
`Cc1cc(Cl)cc(C(=O)NC(C)CS(C)(=N)=O)c1NC(=O)c1cc(C(F)(F)F)nn1-c1ncccc1Cl` (stereo not shown) [T16.1.1]: the inhibition at 400 ppm in the data set with Diabrotica balteata, with Heliothis virescens, in the data set on Plutella xylostella and with Spodoptera littoralis [1] was greater than 80% each time. The pest or weed control at 12.5 ppm in the data set on Spodoptera littoralis [2] (in Zea mays) is greater than 80%.
On to `Cc1cc(Cl)cc(C(=O)NC(C)CS(C)(=O)=NC(=O)C(F)(F)F)c1NC(=O)c1cc(C(F)(F)F)nn1-c1ncccc1Cl` (stereo not shown) [T18.1.1], for which the inhibition at 400 ppm with Diabrotica balteata, with Plutella xylostella and in the data set with Spodoptera littoralis [1] was greater than 80% in each case. In the data set on Spodoptera littoralis [2] (in Zea mays), the pest or weed control at 12.5 ppm was greater than 80%.
`Cc1cc(Cl)cc(C(=O)NCc2ccccc2S(C)(=N)=O)c1NC(=O)c1cc(C(F)(F)F)nn1-c1ncccc1Cl` (stereo not shown) [T34.1.1] displayed a melting point of 235 to 238 °C. Moreover, the inhibition at 400 ppm with Plutella xylostella was greater than 80%. For the same compound, the inhibition at 400 ppm in the data set with Spodoptera littoralis [1] is greater than 80%.
For the compound `Cc1cc(Cl)cc(C(=O)NCc2ccccc2S(C)(=O)=NC(=O)C(F)(F)F)c1NC(=O)c1cc(C(F)(F)F)nn1-c1ncccc1Cl` (stereo not shown) [T35.1.1], the inhibition at 400 ppm in the data set with Heliothis virescens, in the data set with Plutella xylostella and in the data set on Spodoptera littoralis [1] was greater than 80% in each case. Also, the pest or weed control at 12.5 ppm with Spodoptera littoralis [2] (maize seedlings in water with 12.5 ppm, 6 days growth, cut leaves, 1st instar larvae, 4 days, one replicate) is greater than 80%.
`CCC(CS(C)(=O)=NC(=O)C(F)(F)F)NC(=O)c1cc(Cl)cc(C)c1NC(=O)c1cc(C(F)(F)F)nn1-c1ncccc1Cl` (stereo not shown) [T39.1.1] gave a melting point of 170 to 174 °C. The inhibition at 400 ppm in the data set with Plutella xylostella was greater than 80%.
`Cc1cc(Cl)cc(C(=O)NCCCCCCS(C)(=N)=O)c1NC(=O)c1cc(C(F)(F)F)nn1-c1ncccc1Cl` (stereo not shown) [T46.1.1] had a melting point of 148 to 152 °C. The inhibition at 400 ppm with Heliothis virescens was greater than 80%. In addition, the inhibition at 400 ppm in the data set on Plutella xylostella was greater than 80%. In the data set on Spodoptera littoralis [1], the inhibition at 400 ppm is greater than 80%.
`Cc1cc(Cl)cc(C(=O)NCCCCCCS(C)(=O)=NC(=O)C(F)(F)F)c1NC(=O)c1cc(C(F)(F)F)nn1-c1ncccc1Cl` (stereo not shown) [T47.1.1] returned a melting point of 110 to 113 °C. Also, the inhibition at 400 ppm in the data set on Plutella xylostella was greater than 80%. Moreover, the inhibition at 400 ppm with Spodoptera littoralis [1] is greater than 80%.
